Laboratory results from patent US20250205259A1, “CLASS OF 7-((FIVE-MEMBERED HETEROCYCLIC)METHYL)-8-CARBOXYLIC ACID-BENZO CYCLIC BORATE DERIVATIVES AND USES THEREOF” (priority 2022, published 2025).
Read-outs that look alike come from different tables or passages of the source.

Tests used:
Format in all cases: biochemical
SHV-12 = target: T1, SHV-12 (UniProt P0AD64, L31Q/G234S/E235K, species not given); assay: Inhibitory activity on SBL, fluorescent substrate FC-5; details: read-out: Inhibitory activity on SBL SHV-12 (IC50 class)
T1 sequence (P0AD64 1-286 L31Q/G234S/E235K): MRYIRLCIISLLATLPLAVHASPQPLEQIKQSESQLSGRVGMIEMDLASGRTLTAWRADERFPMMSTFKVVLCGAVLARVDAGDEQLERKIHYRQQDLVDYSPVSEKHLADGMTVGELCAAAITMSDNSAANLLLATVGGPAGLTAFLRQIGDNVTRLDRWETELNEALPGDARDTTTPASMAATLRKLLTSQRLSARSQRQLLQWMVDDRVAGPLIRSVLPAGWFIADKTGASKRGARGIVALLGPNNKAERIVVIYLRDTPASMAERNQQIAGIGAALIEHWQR

NDM-5 = NDM-5 (Klebsiella pneumoniae, UniProt C7C422, M154L/V88L); assay: Inhibitory activity on MBL, fluorescent substrate FC-5
NDM-5, sequence (C7C422 29-270 V88L/M154L): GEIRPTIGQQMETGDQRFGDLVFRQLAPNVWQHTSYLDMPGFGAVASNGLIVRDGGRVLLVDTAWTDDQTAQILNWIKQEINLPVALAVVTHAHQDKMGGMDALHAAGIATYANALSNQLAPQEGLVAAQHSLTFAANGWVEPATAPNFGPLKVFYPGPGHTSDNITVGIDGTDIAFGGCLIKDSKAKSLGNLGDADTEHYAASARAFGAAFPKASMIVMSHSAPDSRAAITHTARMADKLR

VIM-2 = VIM-2 (Escherichia coli, UniProt Q5U7L7); assay: as above; details: read-out: Inhibitory activity on MBL VIM-2 (IC50 class)
VIM-1 = VIM-1 (Pseudomonas aeruginosa, UniProt A0A0F7KYQ8); assay: as above
NDM-1 = NDM-1 (Klebsiella pneumoniae, UniProt C7C422); assay: as above
NDM-1, sequence (C7C422 29-270 limits assumed): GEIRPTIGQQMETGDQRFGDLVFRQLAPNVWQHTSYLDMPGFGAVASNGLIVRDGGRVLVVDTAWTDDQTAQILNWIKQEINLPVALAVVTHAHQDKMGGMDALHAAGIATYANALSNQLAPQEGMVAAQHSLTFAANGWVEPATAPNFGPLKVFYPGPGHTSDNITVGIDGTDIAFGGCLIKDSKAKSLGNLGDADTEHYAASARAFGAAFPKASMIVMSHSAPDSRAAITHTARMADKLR

IMP-1 = IMP-1 (Serratia marcescens, UniProt P52699); assay: as above; details: read-out: Inhibitory activity on MBL IMP-1 (IC50 class)
IMP-1, sequence (P52699 19-246 limits assumed): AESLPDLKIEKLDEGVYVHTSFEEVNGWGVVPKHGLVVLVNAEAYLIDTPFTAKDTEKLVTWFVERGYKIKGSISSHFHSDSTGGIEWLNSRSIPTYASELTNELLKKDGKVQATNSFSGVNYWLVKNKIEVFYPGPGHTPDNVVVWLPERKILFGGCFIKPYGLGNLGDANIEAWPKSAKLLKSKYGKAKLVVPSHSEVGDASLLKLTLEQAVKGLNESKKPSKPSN

OXA-48 = OXA-48 (Klebsiella pneumoniae, UniProt Q6XEC0); assay: Inhibitory activity on SBL, fluorescent substrate FC-5; details: for IC50: read-out: Inhibitory activity on SBL OXA-48 (IC50 class)
OXA-48, sequence (Q6XEC0 23-265 limits assumed): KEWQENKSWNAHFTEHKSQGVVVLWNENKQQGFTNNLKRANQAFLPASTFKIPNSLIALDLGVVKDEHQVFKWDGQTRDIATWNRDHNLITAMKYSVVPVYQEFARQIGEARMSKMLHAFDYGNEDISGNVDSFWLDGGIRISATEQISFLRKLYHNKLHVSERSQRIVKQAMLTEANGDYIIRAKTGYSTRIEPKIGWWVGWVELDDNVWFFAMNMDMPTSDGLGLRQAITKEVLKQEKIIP

KPC-2 = KPC-2 (Klebsiella pneumoniae, UniProt Q9F663); assay: as above; details: for IC50: read-out: Inhibitory activity on SBL KPC-2 (IC50 class)
KPC-2, sequence (Q9F663 25-293 limits assumed): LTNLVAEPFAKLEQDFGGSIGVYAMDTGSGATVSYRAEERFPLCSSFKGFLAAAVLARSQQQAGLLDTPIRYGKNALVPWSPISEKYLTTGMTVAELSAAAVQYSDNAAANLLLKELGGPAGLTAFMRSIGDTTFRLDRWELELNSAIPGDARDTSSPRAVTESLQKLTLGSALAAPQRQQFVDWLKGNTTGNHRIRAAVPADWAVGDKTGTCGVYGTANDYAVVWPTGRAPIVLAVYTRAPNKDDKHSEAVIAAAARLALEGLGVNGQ

TEM-1 = TEM-1 (Escherichia coli, UniProt P62593); assay: as above; details: for IC50: read-out: Inhibitory activity on SBL TEM-1 (IC50 class)
TEM-1, sequence (P62593 24-286 limits assumed): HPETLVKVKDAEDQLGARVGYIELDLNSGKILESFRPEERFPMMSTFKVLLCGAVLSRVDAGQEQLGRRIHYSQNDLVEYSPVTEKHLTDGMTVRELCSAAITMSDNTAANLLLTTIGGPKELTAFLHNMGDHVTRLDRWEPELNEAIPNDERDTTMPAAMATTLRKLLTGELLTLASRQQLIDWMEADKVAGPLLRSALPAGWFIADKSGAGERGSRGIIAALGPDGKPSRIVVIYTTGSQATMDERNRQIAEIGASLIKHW

CTX-M-14 = CTX-M-14 (Escherichia coli, UniProt Q9L5C7); assay: as above; details: for IC50: read-out: Inhibitory activity on SBL CTX-M-14 (IC50 class)
CTX-M-14, sequence (Q9L5C7 entry or part of it): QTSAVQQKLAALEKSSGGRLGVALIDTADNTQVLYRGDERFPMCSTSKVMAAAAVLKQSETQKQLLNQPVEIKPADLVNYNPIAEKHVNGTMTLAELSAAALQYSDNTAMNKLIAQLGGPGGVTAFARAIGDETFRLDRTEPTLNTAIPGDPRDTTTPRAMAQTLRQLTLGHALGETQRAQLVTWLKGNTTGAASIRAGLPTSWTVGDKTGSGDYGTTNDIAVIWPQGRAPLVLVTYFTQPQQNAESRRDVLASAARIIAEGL

[1] = read-out: Inhibitory activity on MBL NDM-5 (IC50 class)
[2] = read-out: inhibitory activity at a nanomolar-level on NDM-5
[3] = VIM-1 and/or VIM-2, read-out: inhibitory activity at a nanomolar-level on VIM-1 and/or VIM-2
[4] = read-out: Inhibitory activity on MBL VIM-1 (IC50 class)
[5] = read-out: Inhibitory activity on MBL NDM-1 (IC50 class)
[6] = read-out: inhibitory activity at a nanomolar-level on NDM-1

| Structure (SMILES) | IC50 (SHV-12) [nM] | IC50 (NDM-5; [1]) [nM] | IC50 (NDM-5; [2]) [nM] | IC50 (VIM-2) [nM] | IC50 (VIM-1; [3]) [nM] | IC50 (VIM-1; [4]) [nM] | IC50 (NDM-1; [5]) [nM] | IC50 (NDM-1; [6]) [nM] | IC50 (IMP-1) [nM] | inhibitory activity on OXA-48 compared to avibactam (OXA-48; comparison in words) | IC50 (OXA-48) [nM] | inhibitory activity on KPC-2 compared to avibactam (KPC-2; comparison in words) | IC50 (KPC-2) [nM] | inhibitory activity on TEM-1 compared to avibactam (TEM-1; comparison in words) | IC50 (TEM-1) [nM] | inhibitory activity on CTX-M-14 compared to avibactam (CTX-M-14; comparison in words) | IC50 (CTX-M-14) [nM] | IC50 (NDM-5; Inhibitory activity on MBL NDM-5 (IC50 class)) [nM] | IC50 (NDM-5; inhibitory activity at a nanomolar-level on NDM-5) [nM] |
| --- | --- | --- | --- | --- | --- | --- | --- | --- | --- | --- | --- | --- | --- | --- | --- | --- | --- | --- | --- |
| NC(=O)c1cnn(Cc2ccc3c(c2C(=O)O)OB(O)CC3)c1 [Compound 19] | 10 to 1000 | 10 to 1000 | < 1000 | 10 to 1000 | < 1000 | 10 to 1000 | 10 to 1000 | < 1000 | 1000 to 100000 | better or comparable | < 10 | better or comparable | < 10 | better or comparable | < 10 | better or comparable | 10 to 1000 |  |  |
| NC(=O)c1ccn(Cc2ccc3c(c2C(=O)O)OB(O)CC3)n1 [Compound 20] | 10 to 1000 | 10 to 1000 | < 1000 | 10 to 1000 | < 1000 | 10 to 1000 | 10 to 1000 | < 1000 | 1000 to 100000 |  | < 10 |  | < 10 |  | < 10 |  | 10 to 1000 |  |  |
| O=C(O)c1c(Cn2ccnc2)ccc2c1OB(O)CC2 [Compound 23] | 10 to 1000 | 10 to 1000 | < 1000 | 10 to 1000 | < 1000 | 1000 to 100000 | 10 to 1000 | < 1000 | 1000 to 100000 |  | < 10 |  | < 10 |  | 10 to 1000 |  | 10 to 1000 |  |  |
| Cc1nccn1Cc1ccc2c(c1C(=O)O)OB(O)CC2 [Compound 24] | 10 to 1000 | 1000 to 100000 |  | 10 to 1000 | < 1000 | 1000 to 100000 | 1000 to 100000 |  | 1000 to 100000 |  | < 10 |  | < 10 |  | 10 to 1000 |  | 10 to 1000 |  |  |
| N#Cc1cccn1Cc1ccc2c(c1C(=O)O)OB(O)CC2 [Compound 25] | 10 to 1000 | 1000 to 100000 |  | 1000 to 100000 |  | 1000 to 100000 | 1000 to 100000 |  | 1000 to 100000 |  | 10 to 1000 |  | < 10 |  | 10 to 1000 |  | 10 to 1000 |  |  |
| O=C(O)c1c(CN2CC=CC2)ccc2c1OB(O)CC2 [Compound 26] | 10 to 1000 | 1000 to 100000 |  | 1000 to 100000 |  | 1000 to 100000 | 1000 to 100000 |  | 1000 to 100000 |  | 10 to 1000 |  | < 10 |  | 10 to 1000 |  | 10 to 1000 |  |  |
| O=C(O)c1c(Cn2cc([N+](=O)[O-])cn2)ccc2c1OB(O)CC2 [Compound 31] | 10 to 1000 | 10 to 1000 | < 1000 | 10 to 1000 |  | 1000 to 100000 | 10 to 1000 | < 1000 | 1000 to 100000 |  | < 10 |  | < 10 |  | 10 to 1000 |  | 10 to 1000 |  |  |
| Nc1cnn(Cc2ccc3c(c2C(=O)O)OB(O)CC3)c1 [Compound 32] | 10 to 1000 | 10 to 1000 | < 1000 | 10 to 1000 |  | 1000 to 100000 | 10 to 1000 | < 1000 | 1000 to 100000 |  | < 10 |  | < 10 |  | 10 to 1000 |  | < 10 |  |  |
| NS(=O)(=O)Nc1cnn(Cc2ccc3c(c2C(=O)O)OB(O)CC3)c1 [Compound 34] | 10 to 1000 |  |  | 10 to 1000 |  | 1000 to 100000 | 10 to 1000 | < 1000 | 1000 to 100000 |  | < 10 |  | < 10 |  | < 10 |  | < 10 | 10 to 1000 | < 1000 |
| NCCNCc1cnn(Cc2ccc3c(c2C(=O)O)OB(O)CC3)c1 [Compound 35] | 10 to 1000 | 10 to 1000 |  | 10 to 1000 |  | 1000 to 100000 | 1000 to 100000 |  | 1000 to 100000 |  | < 10 |  | 10 to 1000 |  | < 10 |  | 10 to 1000 |  |  |
| NS(=O)(=O)NCc1cnn(Cc2ccc3c(c2C(=O)O)OB(O)CC3)c1 [Compound 36] | 10 to 1000 | 10 to 1000 | < 1000 | 10 to 1000 |  | 1000 to 100000 | 10 to 1000 | < 1000 | 1000 to 100000 |  | < 10 |  | < 10 |  | < 10 |  | 10 to 1000 |  |  |
| NC1(c2cnn(Cc3ccc4c(c3C(=O)O)OB(O)CC4)c2)CC1 [Compound 40] | 10 to 1000 | 10 to 1000 |  | 10 to 1000 |  | 1000 to 100000 | 1000 to 100000 |  | 1000 to 100000 |  | 10 to 1000 |  | < 10 |  | < 10 |  | 10 to 1000 |  |  |
| NCc1ccn(Cc2ccc3c(c2C(=O)O)OB(O)CC3)n1 [Compound 42] | 10 to 1000 | 10 to 1000 | < 1000 | 10 to 1000 | < 1000 | 10 to 1000 | 10 to 1000 | < 1000 | 1000 to 100000 |  | 10 to 1000 |  | < 10 |  | < 10 |  | 10 to 1000 |  |  |
| O=C(O)c1c(CN2C[C@H](O)CC2=O)ccc2c1OB(O)CC2 [Compound 44] | 10 to 1000 | 10 to 1000 | < 1000 | 10 to 1000 | < 1000 | 10 to 1000 | 10 to 1000 | < 1000 | 1000 to 100000 |  | 10 to 1000 |  | 10 to 1000 |  | 10 to 1000 |  | 10 to 1000 |  |  |
| N=C(N)NCCCc1cn(Cc2ccc3c(c2C(=O)O)OB(O)CC3)nn1 [Compound 48] | 10 to 1000 | 10 to 1000 |  | 10 to 1000 |  | 1000 to 100000 | 1000 to 100000 |  | 1000 to 100000 |  | 10 to 1000 |  | < 10 |  | 10 to 1000 |  | 10 to 1000 |  |  |
